The test system of test [1] is locomotor activity in mice. Put plainly: Inhibition of locomotor activity in mice. It counts as in vivo. The note with it: for ED50: Mus musculus, ip, read-out: Inhibition of Locomotor Activity in Mice ED50. As to the method:
(§1) The compounds of Formula I are valuable dopaminergic agents. […] Thus, the compounds of Formula I were tested for their ability to inhibit locomotor activity in mice according to the assay described by J. R. McLean, et al, Pharmacology, Biochemistry and Behavior, Volume 8, pages 97-99 (1978); for their ability to inhibit haloperidol binding in a receptor assay described by D. R. Burt, et al, Molecular Pharmacology, Volume 12, pages 800-812 (1976); and for their ability to inhibit dopamine synthesis in rats according to the protocol described by J. R. Walters and R. H. Roth, Naunyn--Schmiedeberg's Archives of Pharmacology, Volume 296, pages 5-14 (1976). The above test methods are incorporated herein by reference.

Test [2] deals with dopamine synthesis in rats. The test can be described thus: Inhibition of dopamine synthesis in rats. In kind it is in vivo. Conditions: IP. As for the experimental part: as §1
In test [3] the target is T1, haloperidol binding in a receptor assay (Bos taurus, UniProt P20288).
T1 construct: from tissue; host or cells: calf brain (caudate/striatal) membranes, inferred from the cited method
T1 sequence (P20288 whole entry): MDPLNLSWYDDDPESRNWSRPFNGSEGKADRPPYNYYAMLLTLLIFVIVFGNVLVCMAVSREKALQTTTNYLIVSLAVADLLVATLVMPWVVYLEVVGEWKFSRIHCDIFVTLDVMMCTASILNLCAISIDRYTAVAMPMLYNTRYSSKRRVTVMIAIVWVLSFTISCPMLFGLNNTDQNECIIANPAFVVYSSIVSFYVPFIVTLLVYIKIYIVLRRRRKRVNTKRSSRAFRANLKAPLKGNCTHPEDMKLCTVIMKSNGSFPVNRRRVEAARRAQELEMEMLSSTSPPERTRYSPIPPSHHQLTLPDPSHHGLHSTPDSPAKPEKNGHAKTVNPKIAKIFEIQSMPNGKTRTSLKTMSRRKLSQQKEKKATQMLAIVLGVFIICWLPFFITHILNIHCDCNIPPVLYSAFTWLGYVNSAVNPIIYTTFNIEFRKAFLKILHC
The test can be described thus: Inhibition of haloperidol binding. As to the method: as §1

Like-named read-outs stand apart in the source and are kept apart here.

For `O=C(Nc1nc2c(s1)CC(N1CCN(c3ccccn3)CC1)CC2)c1ccccc1` (racemic) [Example 2, (±)-N-[4,5,6,7-Tetrahydro-6-[4-(2-pyridinyl)-1-piperazinyl]-2-benzothiazolyl]benzamide], the ED50 – broadly, the dose at which the effect has come halfway, by size or by number of responders – in test [1] (mice, IP) turned out to be 3.7 mg/kg. Besides, in test [2] (at 10 mg/kg), the “Inhibition of Dopamine Synthesis in Rats” value is 59%. With `Nc1nc2c(s1)CC(CCN1CCN(c3ccccn3)CC1)CC2` (racemic) [Example 9, (±)-4,5,6,7-Tetrahydro-6-[2-[4-(2-pyridinyl)-1-piperazinyl]ethyl]-2-benzothiazolamine], the median effective dose (ED50) in test [1] (mice, IP) came to 0.21 mg/kg. The “Inhibition of Dopamine Synthesis in Rats” value in test [2] (at 1.3 mg/kg) was determined as 50%. The IC50 (as a rule, the concentration that gives 50% inhibition) in test [3] was 105 nM. Turning to `Nc1nc2c(s1)CC(CN1CC=C(c3ccccc3)CC1)CC2` (racemic) [Example 8, (±)-6-[(3,6-Dihydro-4-phenyl-1(2H)-pyridinyl)methyl]-4,5,6,7-tetrahydro-2-benzothiazolamine], in test [1], the ED50 is 0.75 mg/kg. Take `Nc1nc2c(s1)CC(N1CCN(c3ccccn3)CC1)CC2` (racemic) [Example 1, (±)-4,5,6,7-Tetrahydro-6-[4-(2-pyridinyl)-1-piperazinyl]-2-benzothiazolamine]: the ED50 in test [1] (mice, IP) is 6.6 mg/kg. Moreover, in test [2] (at 4.4 mg/kg), the “Inhibition of Dopamine Synthesis in Rats” value is 50%. The compound also yielded an IC50 in test [3] of 876 nM. As for `c1ccc(N2CCN(CC3CCc4ncsc4C3)CC2)nc1` (racemic) [Example 5, (±)-4,5,6,7-tetrahydro-6-[[4-(2-pyridinyl)-1-piperazinyl]methyl]benzothiazole], the ED50 in test [1] (mice, IP) stood at 7.4 mg/kg.

Consider `Nc1nc2c(s1)CC(N1CCN(c3ccccc3)CC1)CC2` (racemic) [Example 1b, (±)-4,5,6,7-Tetrahydro-6-(4-phenyl-1-piperazinyl)-2-benzothiazolamine], for which the ED50 in test [1] (mice, IP) worked out at 6.1 mg/kg. For the compound `Nc1nc2c(s1)CC(CCN1CCN(c3ccccn3)CC1)CC2` (single isomer, unassigned; (-)) [Example 11a, (-)-4,5,6,7-Tetrahydro-6-[2-[4-(2-pyridinyl)-1-piperazinyl]ethyl]-2-benzothiazolamine], in test [1] (mice, IP), the 50% effective dose (ED50) turned out to be 0.2 mg/kg. For the same compound, the “Inhibition of Dopamine Synthesis in Rats” value in test [2] (at 0.2 mg/kg) is recorded as 50%. For the compound `Nc1nc2c(s1)CC(CCN1CCN(c3ccccn3)CC1)CC2` (single isomer, unassigned; (+)) [Example 11, (+)-4,5,6,7-Tetrahydro-6-[2-[4-(2-pyridinyl)-1-piperazinyl]ethyl]-2-benzothiazolamine], in test [1] (mice, IP), the “Inhibition of Locomotor Activity in Mice ED50” value was 0.37 mg/kg. Also, the “Inhibition of Dopamine Synthesis in Rats” value in test [2] (at 0.8 mg/kg) turned out to be 50%. For the compound `Nc1nc2c(s1)CC(CN1CCN(c3ccccn3)CC1)CC2` (racemic) [Example 7, (±)-4,5,6,7-Tetrahydro-6-[[4-(2-pyridinyl)-1-piperazinyl]methyl]-2-benzothiazolamine], in test [1] (mice, IP), the ED50 turned out to be 7.2 mg/kg. For the same compound, in test [2] (at 10 mg/kg), the “Inhibition of Dopamine Synthesis in Rats” value stood at 48%. With `Nc1nc2c(s1)CC(N1CC=C(c3ccccc3)CC1)CC2` (racemic) [Example 1a, (±)-6-(3,6-Dihydro-4-phenyl-1(2H)-pyridinyl)-4,5,6,7-tetrahydro-2-benzothiazolamine], the ED50 in test [1] was 1.5 mg/kg. Also, the “Inhibition of Dopamine Synthesis in Rats” value in test [2] (at 10 mg/kg) amounted to 69%.

As to `Nc1nc2c(s1)CC(N1CCN(c3ncccn3)CC1)CC2` (racemic) [Example 1c, (±)-4,5,6,7-Tetrahydro-6-[4-(2-pyrimidinyl)-1-piperazinyl]-2-benzothiazolamine], the median effective dose (ED50) in test [1] (mice, IP) is 30 mg/kg.

Turning to `Nc1nc2c(s1)CC(N1CCN(c3ccccn3)CC1)CC2` (single isomer, unassigned; (-)) [Example 4, (-)-4,5,6,7-Tetrahydro-6-[4-(2-pyridinyl)-1-piperazinyl]-2-benzothiazolamine], in test [1] (mice, IP), the “Inhibition of Locomotor Activity in Mice ED50” value is reported as 7.4 mg/kg. The “Inhibition of Dopamine Synthesis in Rats” value in test [2] (at 4.8 mg/kg) was found to be 50%. This compound showed a concentration for half-maximal inhibition (IC50) in test [3] of about 1500 nM.

Regarding `Nc1nc2c(s1)CC(N1CCN(c3ccccn3)CC1)CC2` (single isomer, unassigned; (+)) [Example 3, (+)-4,5,6,7-Tetrahydro-6-[4-(2-pyridinyl)-1-piperazinyl]-2-benzothiazolamine], the ED50 in test [1] (mice, IP) came to 9.9 mg/kg. In addition, the “Inhibition of Dopamine Synthesis in Rats” value in test [2] (at 7.0 mg/kg) is reported as 50%. The IC50 in test [3] was about 800 nM. For `Nc1nc2c(s1)CC(CCN1CC=C(c3ccccc3)CC1)CC2` (racemic) [Example 10, (±)-6-[2-(3,6-Dihydro-4-phenyl-1(2H)-pyridinyl)ethyl]-4,5,6,7-tetrahydro-2-benzothiazolamine], the ED50 in test [1] is 0.4 mg/kg.

Values taken from patent US4988699A, “Substituted tetrahydrobenzothiazoles as dopaminergic agents” (Warner-Lambert Company, priority 1989, dated 1991).
